Results from patent US20210205223A1, “PROPELLANT-FREE FORMULATION FOR INHALATION” (priority 2020, published 2021).
Where a name gives a salt, the structure may show the parent alone.

Conditions: solution of sample 1 from soft mist inhaler; ACI 28.3 L/minute, ambient temperature, RH 90%
Description: The aerodynamic particle size distribution was determined using an Andersen Scale Impactor (ACI). The soft mist inhaler was held close to the ACI inlet until no aerosol was visible. The flow rate of the ACI was set to 28.3 L/minute and was operated under ambient temperature and a relative humidity (RH) of 90%.
Fractions of the dose were deposited at different stages of the ACI, in accordance with the particle size of the fraction. Each fraction was washed from the stage and analyzed using HPLC.
The particle size distribution was expressed in terms of mass median aerodynamic diameter (MMAD) and Geometric Standard Deviation (GSD).

| Compound | MMAD (mass median aerodynamic diameter) |
| --- | --- |
| COc1ccc(CC(C)NCC(O)c2ccc(O)c(NC=O)c2)cc1 (centres unmarked) [Formoterol fumarate, N-[2-hydroxy-5-(1-hydroxy-2-((2-(4-methoxyphenyl)-1-methylethy-1)amino)-ethyl)phenyl] formamide] | 4.49 μm |
| C[N+]1(C)CCC(OC(=O)C(O)(c2ccccc2)C2CCCC2)C1.[Br-] (centres unmarked) [Glycopyrronium bromide] | 4.91 μm |
